Test results published in patent US20150202186A1, “CYSTATHIONINE-(gamma)-LYASE (CSE) INHIBITORS FOR TREATING PAIN” (SOVA PHARMACEUTICALS, INC., priority 2014, published 2015).

target: recombinant CSE (cystathionine-γ-lyase) (UniProt P32929); assay: CSE In Vitro Assay

SMILES	IC50
CN(N)c1nnn(C)n1 [Compound 38]	> 100 µM
CCN(N)c1nnn[nH]1 [Compound 13]	< 25 µM
COCCN(N)c1nnn[nH]1 [Compound 15]	25 to 100 µM
